The record followed here is patent US9346795B2, “Substituted sulfonamides useful as antiapoptotic Bcl inhibitors” (Bristol-Myers Squibb Company, priority 2011, dated 2016).

One assay addresses Bcl-xL (Homo sapiens (Human), UniProt Q07817). The assay is described as follows: Bcl-xL/Bim Fluorescence Resonance Energy Transfer Assay (FRET). It counts as binding. The method, then: Bcl-xL/Bim Fluorescence Resonance Energy Transfer Assay (FRET) The assays were performed in black flat-bottom 384-well plates. The final assay volume was 55 μl prepared from additions of Biotin-Bcl-xL (Bcl-xL: GENBANK® Accession No. […] The reaction was incubated at room temperature for 60 minutes. After 60 minutes, 5 μL of Streptavidin-Terbium FRET detection reagent (Perkin Elmer) was added to the reaction mixture and incubated at room temperature in the dark for 30 mins. […] Compounds were dissolved at 10 mM in dimethylsulfoxide (DMSO) and evaluated at eleven concentrations. IC50 values were derived by non-linear regression analysis.

A further assay deals with Bcl-2 (Homo sapiens (Human), UniProt P10415). The assay is described as follows: Bcl-2/Bim Fluorescence Polarization Assay (FPA). In kind it is binding. The method, then: Bcl-2/Bim Fluorescence Polarization Assay (FPA)
The assays were performed in black flat-bottom 384-well plates. […] The reaction was incubated at room temperature for 60 minutes and fluorescence polarization of the reaction was detected on the LJL Plate Reader. Inhibition data were calculated from mP values generated by the no protein control reactions for 100% inhibition and vehicle-only reactions for 0% inhibition. The final concentrations of reagents in the assay were 4.9 nM BCL-2, 5 nM fluoresceinated 18-mer BIM peptide and 1% DMSO. […] Compounds were dissolved at 10 mM in dimethylsulfoxide (DMSO) and evaluated at eleven concentrations. IC50 values were derived by non-linear regression analysis.
(In general: Polarisation of emitted light reports the rotation of a fluorescent probe.)

Bcl-xL, sequence (Q07817 whole entry): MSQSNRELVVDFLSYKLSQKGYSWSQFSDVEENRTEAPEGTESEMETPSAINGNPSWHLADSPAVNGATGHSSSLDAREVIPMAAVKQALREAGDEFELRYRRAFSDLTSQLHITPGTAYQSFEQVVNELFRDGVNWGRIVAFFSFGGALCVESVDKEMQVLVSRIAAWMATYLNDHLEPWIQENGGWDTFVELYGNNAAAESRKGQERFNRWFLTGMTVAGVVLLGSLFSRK
Bcl-2, sequence (P10415 whole entry): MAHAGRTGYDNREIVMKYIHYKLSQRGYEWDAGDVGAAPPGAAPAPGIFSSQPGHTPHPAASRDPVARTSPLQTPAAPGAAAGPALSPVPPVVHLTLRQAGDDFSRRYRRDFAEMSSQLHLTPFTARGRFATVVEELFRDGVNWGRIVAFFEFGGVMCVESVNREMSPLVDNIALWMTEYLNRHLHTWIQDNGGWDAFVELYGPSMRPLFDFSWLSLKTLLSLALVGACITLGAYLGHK

For orientation: IC50 means the concentration that gives 50% inhibition. High values mean a need for much substance, low ones inhibition by little substance. As for `CCCCN(CCCC)C(=O)c1nn(-c2ccc(C(=O)NS(=O)(=O)c3ccc4c(c3)CCN4CCSc3ccccc3)cc2C(=O)N2CCc3ccccc3C2)c(C)c1Cl` [Example 67, N,N-dibutyl-4-chloro-5-methyl-1-(4-(1-(2-(phenylthio)ethyl)indolin-5-ylsulfonylcarbamoyl)-2-(1,2,3,4-tetrahydroisoquinoline-2-carbonyl)phenyl)-1H-pyrazole-3-carboxamide], the half-maximal inhibitory concentration (IC50) was 60 nM against Bcl-xL and 50 nM on Bcl-2. The matching figures for `CCCCN(CCCC)C(=O)c1cn(CC(=O)O)c(-c2ccc(C(=O)NS(=O)(=O)c3cccc4ccccc34)cc2C(=O)N2CCc3ccccc3C2)n1` [Example 269, 2-(4-(Dibutylcarbamoyl)-2-(4-(naphthalen-1-ylsulfonylcarbamoyl)-2-(1,2,3,4-tetrahydroisoquinoline-2-carbonyl)phenyl)-1H-imidazol-1-yl)acetic acid]: 30 nM and 140 nM. The matching figures for `CCCCN(CCCC)C(=O)c1nn(-c2ccc(C(=O)NS(=O)(=O)c3ccc4ccccc4c3)cc2C(=O)N2COc3ccccc3C2)c(C)c1Cl` [Example 96, N,N-Dibutyl-4-chloro-1-(2-(3,4-dihydro-2H-benzo[e][1,3]oxazine-3-carbonyl)-4-(naphthalen-2-ylsulfonylcarbamoyl)phenyl)-5-methyl-1H-pyrazole-3-carboxamide]: 60 nM and 120 nM. With `CCCCN(CCCC)C(=O)c1nn(-c2ccc(C(=O)NS(=O)(=O)c3ccc4c(c3)CCN4C(=O)C3CCCCC3)cc2C(=O)N2CCc3ccccc3C2)c(C)c1Cl` [Example 55, N,N-dibutyl-4-chloro-1-(4-(1-(cyclohexanecarbonyl)indolin-5-ylsulfonylcarbamoyl)-2-(1,2,3,4-tetrahydroisoquinoline-2-carbonyl)phenyl)-5-methyl-1H-pyrazole-3-carboxamide], the IC50 is 230 nM at Bcl-xL and 250 nM against Bcl-2.

For `CCCCN(CCCC)C(=O)c1nn(-c2ccc(C(=O)NS(=O)(=O)c3ccc4ccc(I)cc4c3)cc2C(=O)N2CCc3ccccc3C2)c(C)c1Cl` [Example 11, N,N-dibutyl-4-chloro-1-(4-(7-iodonaphthalen-2-ylsulfonylcarbamoyl)-2-(1,2,3,4-tetrahydroisoquinoline-2-carbonyl)phenyl)-5-methyl-1H-pyrazole-3-carboxamide], the midpoint of inhibition at Bcl-xL, the IC50, lay at 50 nM.

As for `CCCCN(CCCC)C(=O)c1nn(-c2ccc(C(=O)NS(=O)(=O)c3ccc4ccccc4c3)cc2C(=O)N2Cc3ccccc3C[C@H]2CNC2CCN(C)CC2)c(C)c1Cl` [Example 106, N,N-Dibutyl-4-chloro-5-methyl-1-(2-((S)-3-((1-methylpiperidin-4-ylamino)methyl)-1,2,3,4-tetrahydroisoquinoline-2-carbonyl)-4-(naphthalen-2-ylsulfonylcarbamoyl)phenyl)-1H-pyrazole-3-carboxamide], the midpoint of inhibition at Bcl-2, the IC50, lay at 20 nM. On the same count and under the same terms, to `CCCCc1c(-c2ccc(C(=O)NS(=O)(=O)c3ccc4ccccc4c3)cc2C(=O)N2CCc3ccccc3C2)c(CO)nn1-c1ccc(OCC(O)CO)cc1` (racemic) [Example 258, (±)-4-(5-Butyl-1-(4-(2,3-dihydroxypropoxy)phenyl)-3-(hydroxymethyl)-1H-pyrazol-4-yl)-N-(naphthalen-2-ylsulfonyl)-3-(1,2,3,4-tetrahydroisoquinoline-2-carbonyl)benzamide] belongs 8.13 nM. In the case of `CCCCN(CCCC)C(=O)c1nn(-c2ccc(C(=O)NS(=O)(=O)c3ccc4ccccc4c3)cc2C(=O)N2Cc3ccccc3C[C@H]2CO)c(C)c1Cl` [Example 91, N,N-Dibutyl-4-chloro-1-(2-((S)-3-(hydroxymethyl)-1,2,3,4-tetrahydroisoquinoline-2-carbonyl)-4-(naphthalen-2-ylsulfonylcarbamoyl)phenyl)-5-methyl-1H-pyrazole-3-carboxamide], the IC50 against Bcl-2 worked out at 50 nM.
